Laboratory results from article PMC9331678 (Molecules, 2022).

Key:
[1] = 24 h therapeutic monitoring and noncompartmental pharmacokinetics in chronic lymphocytic leukemia patients receiving IBR; conditions: plasma; for concentration at 23 h: 23 h postdose; for concentration at 24 h: 24 h postdose; for k el / half-life / MRT last / MRT / Cmax / Tmax / AUCPEO AUC %Extrapolation Obs / AUCPEP AUC %Extrapolation Pred / AUMCIFO AUMC Infinity Obs / AUMCIFP AUMC Infinity Pred / AUMCLST AUMC to Last Nonzero Conc / AUMCPEO AUMC %Extrapolation Obs / AUMCPEP AUMC % Extrapolation Pred / TMAX Time of CMAX: steady state
[2] = population modeling study; cited from earlier work
[3] = human, oral, 420 mg, Conc., subj=1 (420 mg IBR per day)
[4] = human, oral, 420 mg, Patient 1, 420 mg IBR per day
[5] = human, oral, 420 mg, Patient 2, 420 mg IBR per day
[6] = human, oral, 420 mg/day, Conc., subj=2 (420 mg IBR per day)

- concentration at 23 h [1, 3]: 41.3 nM
- concentration at 24 h [1, 3]: 34.6 nM
- concentration at 0.5 h ([1]; human, oral, 420 mg, Conc., subj=2 (420 mg IBR per day), 0.5 h postdose): 71.5 nM
- concentration at 1 h ([1]; human, oral, 420 mg, Conc., subj=2 (420 mg IBR per day), 1 h postdose): 254 nM
- concentration at 2 h ([1]; human, oral, 420 mg, Conc., subj=2 (420 mg IBR per day), 2 h postdose): 227 nM
- k el ([1]; human, oral, 420 mg, LAMZ Lambda z, subj=1 (420 mg IBR per day)): 1.9e-05 s⁻¹
- k el ([1]; human, oral, 420 mg, LAMZ Lambda z, subj=2 (420 mg IBR per day)): 3.6e-05 s⁻¹
- half-life ([1]; human, oral, 420 mg, LAMZHL Half-Life Lambda z, subj=1 (420 mg IBR per day)): 10.1 h
- half-life ([1]; human, oral, 420 mg, LAMZHL Half-Life Lambda z, subj=2 (420 mg IBR per day)): 5.35 h
- MRT last ([1]; human, oral, 420 mg, MRT0–24, Patient 1, 420 mg IBR per day): 7.07 h
- MRT last ([1]; human, oral, 420 mg, MRT0–24, Patient 2, 420 mg IBR per day): 4.6 h
- MRT ([1]; human, oral, 420 mg, MRTEVIFO MRT Extravasc Infinity Obs, subj=1 (420 mg IBR per day)): 12.7 h
- MRT ([1]; human, oral, 420 mg, MRTEVIFO MRT Extravasc Infinity Obs, subj=2 (420 mg IBR per day)): 5.65 h
- MRT ([1]; human, oral, 420 mg, MRTEVIFP MRT Extravasc Infinity Pred, subj=1 (420 mg IBR per day)): 12.9 h
- MRT ([1]; human, oral, 420 mg, MRTEVIFP MRT Extravasc Infinity Pred, subj=2 (420 mg IBR per day)): 5.63 h
- MRT ([1]; human, oral, 420 mg, MRTEVLST MRT Extravasc to Last Nonzero Conc, subj=1 (420 mg IBR per day)): 7.07 h
- MRT ([1]; human, oral, 420 mg, MRTEVLST MRT Extravasc to Last Nonzero Conc, subj=2 (420 mg IBR per day)): 4.6 h
- Cmax [1, 4]: 185 nM
- Cmax [1, 5]: 254 nM
- k el ([1]; human, oral, 420 mg, ke, Patient 1, 420 mg IBR per day): 1.92e-05 s⁻¹
- k el ([1]; human, oral, 420 mg, ke, Patient 2, 420 mg IBR per day): 3.61e-05 s⁻¹
- half-life ([1]; human, oral, 420 mg, t1/2, Patient 1, 420 mg IBR per day): 10.1 h
- half-life ([1]; human, oral, 420 mg, t1/2, Patient 2, 420 mg IBR per day): 5.35 h
- Tmax [1, 4]: 2 h
- Tmax [1, 5]: 1 h
- concentration at 4 h ([1]; human, oral, 420 mg/day, Conc., subj=2 (420 mg IBR per day), 4 h postdose): 172 nM
- concentration at 23 h [1, 6]: 14.6 nM
- concentration at 24 h [1, 6]: 13.2 nM
- AUCPEO AUC %Extrapolation Obs ([1]; subj=1 (420 mg IBR per day)): 17.7444%
- AUCPEP AUC %Extrapolation Pred ([1]; subj=1 (420 mg IBR per day)): 18.5268%
- AUMCIFO AUMC Infinity Obs ([1]; subj=1 (420 mg IBR per day)): 36155.1204 h2*nmol/L
- AUMCIFP AUMC Infinity Pred ([1]; subj=1 (420 mg IBR per day)): 37213.6967 h2*nmol/L
- AUMCLST AUMC to Last Nonzero Conc ([1]; subj=1 (420 mg IBR per day)): 16593.9650 h2*nmol/L
- AUMCPEO AUMC %Extrapolation Obs ([1]; subj=1 (420 mg IBR per day)): 54.1034%
- AUMCPEP AUMC % Extrapolation Pred ([1]; subj=1 (420 mg IBR per day)): 55.4090%
- TMAX Time of CMAX ([1]; subj=1 (420 mg IBR per day)): 2.0000 h
- AUCPEO AUC %Extrapolation Obs ([1]; subj=2 (420 mg IBR per day)): 3.8711%
- AUCPEP AUC %Extrapolation Pred ([1]; subj=2 (420 mg IBR per day)): 3.8177%
- AUMCIFO AUMC Infinity Obs ([1]; subj=2 (420 mg IBR per day)): 14854.1469 h2*nmol/L
- AUMCIFP AUMC Infinity Pred ([1]; subj=2 (420 mg IBR per day)): 14807.8422 h2*nmol/L
- AUMCLST AUMC to Last Nonzero Conc ([1]; subj=2 (420 mg IBR per day)): 11625.7539 h2*nmol/L
- AUMCPEO AUMC %Extrapolation Obs ([1]; subj=2 (420 mg IBR per day)): 21.7340%
- AUMCPEP AUMC % Extrapolation Pred ([1]; subj=2 (420 mg IBR per day)): 21.4892%
- TMAX Time of CMAX ([1]; subj=2 (420 mg IBR per day)): 1.0000 h
- AUCPEO AUC %Extrapolation Obs ([1]; subj=3 (280 mg IBR per day)): 4.3920%
- AUCPEP AUC %Extrapolation Pred ([1]; subj=3 (280 mg IBR per day)): 4.2856%
- AUMCIFO AUMC Infinity Obs ([1]; subj=3 (280 mg IBR per day)): 10834.3795 h2*nmol/L
- AUMCIFP AUMC Infinity Pred ([1]; subj=3 (280 mg IBR per day)): 10766.9678 h2*nmol/L
- AUMCLST AUMC to Last Nonzero Conc ([1]; subj=3 (280 mg IBR per day)): 8171.9228 h2*nmol/L
- AUMCPEO AUMC %Extrapolation Obs ([1]; subj=3 (280 mg IBR per day)): 24.5741%
- AUMCPEP AUMC % Extrapolation Pred ([1]; subj=3 (280 mg IBR per day)): 24.1019%
- TMAX Time of CMAX ([1]; subj=3 (280 mg IBR per day)): 2.0000 h
- time after drug intake at which maximum concentrations were attained ([1]; three chronic lymphocyte leukemia patients): ≤ 2 h
SMILES: Nc1ncnc2c1c(-c1ccc(Oc3ccccc3)cc1)nn2[C@@H]1CCCN(C(=O)C(O)CO)C1 (stereo partly drawn) [Dihydrodiol Ibrutinib, 1-[(3R)-3-[4-amino-3-(4-phenoxyphenyl)pyrazolo[3,4-d]pyrimidin-1-yl]piperidin-1-yl]-2,3-dihydroxypropan-1-one]
- interindividual variability in the clearance [2]: 51%
- intraindividual variability in the clearance [2]: 26%
